Reference: PMC3639963, “A New Class of Small Molecule Inhibitor of BMP Signaling” (PLoS ONE, 2013)

What was measured:
Assay in all cases: Nanosyn kinase profiling
Type in all cases: biochemical
Details in all cases: read-out: Percentage inhibition; for inhibition at 0.1 µM: 0.1 µM inhibitor; for inhibition at 1 µM: 1 µM inhibitor
NEK1 = biological target: T1, NEK1 (Homo sapiens, UniProt Q96PY6)
T1 construct: purchased Nanosyn (enzymatic panel); SGC in-house recombinant human kinases (DSF panel); Invitrogen (ALK1-6)
T1 sequence (Q96PY6 1-1258): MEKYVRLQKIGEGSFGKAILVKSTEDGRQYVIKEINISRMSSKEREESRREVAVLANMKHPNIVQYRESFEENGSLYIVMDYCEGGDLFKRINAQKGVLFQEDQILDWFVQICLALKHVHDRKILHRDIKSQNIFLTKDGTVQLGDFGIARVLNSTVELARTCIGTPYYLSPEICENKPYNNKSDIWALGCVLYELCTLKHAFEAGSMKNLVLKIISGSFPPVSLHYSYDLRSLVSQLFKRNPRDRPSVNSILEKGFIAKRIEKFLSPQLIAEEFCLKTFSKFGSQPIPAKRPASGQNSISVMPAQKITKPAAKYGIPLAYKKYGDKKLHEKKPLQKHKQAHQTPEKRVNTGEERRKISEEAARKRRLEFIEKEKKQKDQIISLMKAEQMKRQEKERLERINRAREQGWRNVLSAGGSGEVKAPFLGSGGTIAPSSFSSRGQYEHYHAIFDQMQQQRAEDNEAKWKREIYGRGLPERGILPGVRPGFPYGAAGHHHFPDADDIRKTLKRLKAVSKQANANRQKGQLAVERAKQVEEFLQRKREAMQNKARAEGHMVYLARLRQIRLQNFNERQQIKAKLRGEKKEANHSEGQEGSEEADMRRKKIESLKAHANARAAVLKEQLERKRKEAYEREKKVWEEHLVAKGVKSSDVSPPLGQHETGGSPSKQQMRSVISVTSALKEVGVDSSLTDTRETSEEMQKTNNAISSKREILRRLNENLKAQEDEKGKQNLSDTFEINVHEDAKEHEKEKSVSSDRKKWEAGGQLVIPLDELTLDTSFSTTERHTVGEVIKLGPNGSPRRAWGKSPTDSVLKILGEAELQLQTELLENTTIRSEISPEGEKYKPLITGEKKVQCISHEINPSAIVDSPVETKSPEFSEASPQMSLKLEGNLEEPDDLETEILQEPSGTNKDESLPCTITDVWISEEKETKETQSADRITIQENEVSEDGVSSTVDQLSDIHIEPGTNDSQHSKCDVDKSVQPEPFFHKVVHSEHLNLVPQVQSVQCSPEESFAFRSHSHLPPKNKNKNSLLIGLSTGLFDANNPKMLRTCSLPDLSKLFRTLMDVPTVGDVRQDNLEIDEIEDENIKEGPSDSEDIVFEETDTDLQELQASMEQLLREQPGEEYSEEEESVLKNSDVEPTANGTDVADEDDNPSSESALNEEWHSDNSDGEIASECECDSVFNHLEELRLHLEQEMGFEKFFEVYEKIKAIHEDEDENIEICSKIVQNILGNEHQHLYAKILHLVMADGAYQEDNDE
In short: (§1)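 Percent inhibition of each kinase was measured with the inhibitor at 0.1 µM and at 1 µM, as part of a 200-kinase human selectivity panel.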

PKCι = biological target: T2, PKCι (Homo sapiens, UniProt P41743)
T2 construct: purchased Nanosyn (enzymatic panel); SGC in-house recombinant human kinases (DSF panel); Invitrogen (ALK1-6)
T2 sequence (P41743 1-596): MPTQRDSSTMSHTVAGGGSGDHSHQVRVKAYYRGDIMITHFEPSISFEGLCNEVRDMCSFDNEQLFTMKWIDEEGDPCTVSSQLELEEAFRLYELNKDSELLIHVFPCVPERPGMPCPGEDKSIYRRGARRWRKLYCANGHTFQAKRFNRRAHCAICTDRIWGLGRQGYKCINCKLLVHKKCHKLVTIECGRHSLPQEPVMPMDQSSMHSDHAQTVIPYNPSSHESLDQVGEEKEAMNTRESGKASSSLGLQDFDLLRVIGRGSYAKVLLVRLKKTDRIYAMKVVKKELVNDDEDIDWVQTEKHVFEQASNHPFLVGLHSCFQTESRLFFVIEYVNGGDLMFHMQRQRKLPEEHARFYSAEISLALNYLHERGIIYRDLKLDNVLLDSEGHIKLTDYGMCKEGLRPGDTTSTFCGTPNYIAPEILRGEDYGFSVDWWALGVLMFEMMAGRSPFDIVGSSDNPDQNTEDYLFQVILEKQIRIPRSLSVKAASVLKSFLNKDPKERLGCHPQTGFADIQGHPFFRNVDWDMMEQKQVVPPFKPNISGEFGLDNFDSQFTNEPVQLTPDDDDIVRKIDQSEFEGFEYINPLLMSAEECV
In short: as §1

PRKX = biological target: T3, PRKX (Homo sapiens, UniProt P51817)
T3 construct: purchased Nanosyn (enzymatic panel); SGC in-house recombinant human kinases (DSF panel); Invitrogen (ALK1-6)
T3 sequence (P51817 1-358): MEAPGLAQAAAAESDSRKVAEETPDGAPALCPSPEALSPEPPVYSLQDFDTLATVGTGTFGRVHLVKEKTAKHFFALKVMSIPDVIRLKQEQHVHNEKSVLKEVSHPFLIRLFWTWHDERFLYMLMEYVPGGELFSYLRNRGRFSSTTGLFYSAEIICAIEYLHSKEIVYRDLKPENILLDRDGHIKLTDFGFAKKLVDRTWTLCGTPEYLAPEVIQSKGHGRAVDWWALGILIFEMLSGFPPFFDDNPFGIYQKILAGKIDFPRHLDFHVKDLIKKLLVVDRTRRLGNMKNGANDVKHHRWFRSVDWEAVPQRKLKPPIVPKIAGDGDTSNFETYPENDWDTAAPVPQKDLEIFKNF
In short: as §1

SGK1 = biological target: T4, SGK1 (Homo sapiens, UniProt O00141)
T4 construct: purchased Nanosyn (enzymatic panel); SGC in-house recombinant human kinases (DSF panel); Invitrogen (ALK1-6)
T4 sequence (O00141 1-431): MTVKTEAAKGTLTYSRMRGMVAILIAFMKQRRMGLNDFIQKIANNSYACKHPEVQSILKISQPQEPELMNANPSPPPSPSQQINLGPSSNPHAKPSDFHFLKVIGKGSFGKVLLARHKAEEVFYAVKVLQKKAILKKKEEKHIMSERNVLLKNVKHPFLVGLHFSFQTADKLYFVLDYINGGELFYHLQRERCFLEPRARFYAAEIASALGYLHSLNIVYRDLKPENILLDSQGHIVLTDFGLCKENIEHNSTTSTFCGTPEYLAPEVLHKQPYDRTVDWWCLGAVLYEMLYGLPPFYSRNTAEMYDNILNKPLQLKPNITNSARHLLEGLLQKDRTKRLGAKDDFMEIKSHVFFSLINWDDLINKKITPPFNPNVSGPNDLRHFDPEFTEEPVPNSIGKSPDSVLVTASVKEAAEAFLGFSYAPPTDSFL
In short: as §1

| SMILES | inhibition at 0.1 µM (NEK1) | inhibition at 1 µM (NEK1) | inhibition at 0.1 µM (PKCι) | inhibition at 1 µM (PKCι) | inhibition at 0.1 µM (PRKX) | inhibition at 1 µM (PRKX) | inhibition at 0.1 µM (SGK1) | inhibition at 1 µM (SGK1) |
| --- | --- | --- | --- | --- | --- | --- | --- | --- |
| COc1cc(-c2cc(-c3cccc(O)c3)cnc2N)cc(OC)c1OC [K02288, 3-[6-amino-5-(3,4,5-trimethoxy-phenyl)-pyridin-3-yl]-phenol] | -1% | 0.8% | 0.3% | 1.6% | -1% | -1% | 1.1% | -2% |
| c1ccc2c(-c3cnn4cc(-c5ccc(N6CCNCC6)cc5)cnc34)ccnc2c1 [LDN-193189] | 2.1% | 3.4% | 1.4% | 1.5% | 0.2% | 1.2% | 1.1% | 0.8% |
